Source: patent publication US20210379078A1, “Killing Senescent Cells And Treating Senescence-Associated Conditions Using A Bcl Inhibitor And An Mcl-1 Inhibitor” (Unity Biotechnology, Inc., priority 2018, published 2021)

Key:
[1] = target: T1, BIM-Bcl-xL interactions (Mus musculus, UniProt Q64373); assay: Target engagement co-immunoprecipitation with anti-BIM, western blot for Bcl-xL; type: cell-based
T1 construct: Lysates for co-IP experiments were prepared from: (a) lungs from mice; endogenous in cells; host or cells: mouse lung tissue (oral aspiration dosing) and mouse bronchiotracheal epithelial (MBE) cells
Procedure: Immunoprecipitations were performed using rabbit monoclonal anti-BIM (C34C5) antibodies (Cell Signaling Technology®) bound by Protein A-coated magnetic beads (Life Technologies®). 100 ul lysate was incubated with 10 μL of magnetic beads (pre-coated with 2 μg of antibody) for 1 hour at 4° C. in a Thermal Mixer at 1300 rpm (VWR®). After immunocapture, samples were washed three times with cold lysis buffer and eluted from the beads using non-reducing NuPAGE LDS Sample Buffer® (Life Technologies®). […]

[2] = cited from earlier work
[3] = test system: Mcl-1 binding to BIM; assay: Target engagement co-immunoprecipitation with anti-BIM, western blot for Mcl-1; type: cell-based; conditions: OA-dosed mouse lungs (8 hours) and MBE cells (4 hours)
Excerpt: A target engagement assay was developed to determine Bcl-xL and Mcl-1's respective interaction with BIM both in vivo in mice, or cells in culture, in order to predict senolysis. The respective binding pockets of Bcl-xL and Mcl-1 proteins under normal conditions sequestrate pro-apoptotic proteins, such as BIM. Co-immunoprecipitation (co-IP) was employed to study protein-protein interactions in order to determine if candidate senolytics can effectively displace Bcl-xL or Mcl-1 from BIM protein.
Lysates for co-IP experiments were prepared from: (a) lungs from mice that had been dosed for 8 hours by oral aspiration (OA) with either a candidate senolytic Bcl (Compound 1) or Mcl-1 inhibitor (S-63845), or a control vehicle treatment; or (b) mouse bronchiotrachael epithelial (MBE) cells, dosed for 4 hours with the same Bcl or Mcl-1 inhibitor, using a non-denaturing lysis buffer: PBS pH 7.4, 2% CHAPS, supplemented with a protease inhibitor cocktail (Roche®)). For every 0.25 gram of tissue 1 mL of lysis buffer was added to the sample, and next tissue was homogenized using a Precellys 24 (Bertin Technologies®; 3 cycles of 20 s and 20 s pause). Homogenates were cleared by centrifugation at 13000 g at 4° C. for 10 min, and the supernatant lysate was transferred to new tubes, aliquoted, flash-frozen using liquid nitrogen, and stored at −80° C. […]

T1 sequence (Q64373 whole entry): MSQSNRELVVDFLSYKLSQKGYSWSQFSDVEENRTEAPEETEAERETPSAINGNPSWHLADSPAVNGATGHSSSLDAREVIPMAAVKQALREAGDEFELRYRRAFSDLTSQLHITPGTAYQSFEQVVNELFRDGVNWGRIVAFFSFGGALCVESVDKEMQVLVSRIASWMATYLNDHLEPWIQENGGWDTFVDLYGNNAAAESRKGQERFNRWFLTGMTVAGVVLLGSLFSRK

For Cc1c(-c2c(-c3ccc(F)o3)sc3ncnc(O[C@H](Cc4ccccc4OCc4ccnn4CC(F)(F)F)C(=O)O)c23)ccc(OCCN2CCN(C)CC2)c1Cl [Compound S-63845], the “Bcl-xL binding to BIM when Mcl-1 is inhibited (co-IP)” value ([1]; S-63845 at 1 uM and 10 uM) was “Bcl-xL appeared to compensate for BIM binding”.

For CN(C)CC[C@H](CSc1ccccc1)Nc1ccc(S(=O)(=O)NC(=O)c2ccc(N3CCN(Cc4ccccc4-c4ccc(Cl)cc4)CC3)cc2)cc1[N+](=O)[O-] [ABT-737], the “dose-limiting toxicity in human patients” value [2] is given as “dose-limiting thrombocytopenia”.

In the case of Cc1c(C(=O)O)c(-c2cccc(N3CCN(c4ccc(NS(=O)(=O)c5ccc(N[C@H](CCN6CCC(OP(=O)(O)O)CC6)CSc6ccccc6)c(S(=O)(=O)C(F)(F)F)c5)cc4)CC3)c2)c(-c2ccc(Cl)cc2)n1C(C)C [Compound 1], the “Mcl-1 binding to BIM (co-IP)” value [3] is reported as “compensatory Mcl-1 binding to BIM was observed” and the “BIM-Bcl-xL interactions (co-IP)” value ([1]; OA-dosed mouse lungs (8 hours) and MBE cells (4 hours)) is reported as “blocked”.
